From patent US20030073832A1, “Novel aminophenyl ketone derivatives” (priority 2001, published 2003)

Key:
[1] = test system: IL-1β; assay: Inhibition of IL-1β secretion from LPS stimulated peripheral blood mononuclear cells; format: cell-based; conditions: PBMC; LPS stimulated human peripheral blood mononuclear cells, 18 hours, ELISA; read-out: The median inhibition concentration (IC50, nM) of IL-1β
Protocol: (§1) To study the effect of compounds of the present invention in vitro the inhibition of the IL-1β and TNF-α secretion was measured using the following procedure:
(§2) Cytokine production was measured in the media from lipopolysaccharide (LPS) stimulated peripheral blood mononuclear cells. The mononuclear cells were isolated from human peripheral blood by Lymphoprep® (Nycomed, Norway) fractionation and suspended in RPMI 1640 (growth medium) with foetal calf serum (FCS, 2%), at a concentration of 5×10^5 cells/ml. The cells were incubated in 24-well tissue culture plates in 1 ml aliquots. Test compounds were dissolved in dimethylsulfoxide (DMSO, 10 mM) and were diluted with the medium. Compounds were added to the cells for 30 minutes, then LPS ([…] final concentration) was added. The plates were incubated for 18 hours, and the concentration of IL-1β and TNF-α in the medium was determined by enzyme-linked immunosorbent assays. The median inhibitory concentrations (IC50) of the compounds were calculated.

[2] = target: T1, p38α MAP kinase (Homo sapiens, UniProt Q16539); assay: p38α MAP kinase assay; format: biochemical; conditions: immunoprecipitated activated FLAG-p38α from COS-1 cells, GST-ATF-2 substrate; read-out: p38 MAP kinase IC50
T1 construct: made in house; host or cells: COS-1 cells (transient co-transfection, anti-FLAG immunoprecipitation)
Protocol: COS-1 cells (derived from African green monkey kidney fibroblast-like cell containing wild-type T antigen under control of the SV40 promotor) were obtained from ATCC (ATCC no. CRL-1650) and grown in growth medium (DMEM without phenolred, 10% FCS, 2 mM L-glutamine, 100U penicillin and 100 μg streptomycin/ml) at 37° C. with 5% CO2. The cells were passaged twice a week by trypsination (0.25% trypsin, 1 mM EDTA in PBS) and were split 1:10. The medium was changed every second or third day. The cell line was regularly tested with the Mycoplasma PCR Primer Set (Stratagene) and found to be free of Mycoplasma. Tissue culture media, FCS, L-glutamine and penicilin and streptomycin are from Bribco BRL, Gaithersburg, Md., USA.
Transient Expression of COS-1 Cells
On day one COS-1 cells were seeded in 143 cm^2 petridish with a density of 2×10^4celler/cm^2 in growth medium. At day 2 the cells were co-transfected with 5 μg (total) of experimental plasmid DNA, expressing the FLAG-p38α and FLAG-MKK6(EE). The plasmids were introduced into the COS-1 cells in serum-free medium using DOTAP™ (Boehringer-Mannheim, Mannheim, Germany). Plasmid DNA was prepared and purified using the QIAGEN EndoToxin-free Maxiprep-500 kit (Hilden, Germany). Briefly, DNA and DOTAP™ were mixed for exactly 15 min. at 37° C. in the CO2 incubator. […]

[3] = test system: TNF-α; assay: Inhibition of TNF-α secretion from LPS stimulated peripheral blood mononuclear cells; format: cell-based; conditions: PBMC; LPS stimulated human peripheral blood mononuclear cells, 18 hours, ELISA; read-out: The median inhibition concentration (IC50, nM) of TNF-α
Protocol: as §1, §2

[4] = test system: PMN-superoxide; assay: Inhibition of PMN superoxide secretion (ferricytochrome C reduction); format: cell-based; conditions: human PMN granulocytes primed with TNF-α, stimulated with fMLP; read-out: The median inhibition concentration (IC50, nM) of PMN-superoxide
Protocol: The compounds of the present invention also show similar activities in the ability to inhibit PMN (polymorphonuclear) superoxide secretion which is also indicative of potentially useful anti-inflammatory drugs. The compounds were tested using the following procedure:
Human polymorphonuclear (PMN) granulocytes were isolated from human blood by dextran sedimentation, Lymphoprep® fractionation and hypotonic lysis of contaminating erythrocytes.
Superoxide anion generation was measured as the superoxide dismutase inhibitable reduction of ferricytochrome C (Madhu, S.B. et al, Inflammation, 16, 241, (1992)). The cells were suspended in Hanks' balanced salt solution, and incubated for 10 minutes at 37° C. with test compounds. The cells were primed by the addition of TNF-α (3 ng/ml final concentration) for 10 minutes, and then ferricytochrome C, (final concentration 750 μg/ml), bovine serum albumin (BSA, final concentration 1 mg/ml) and formyl-methionyl-leucyl-phenylalanine (fMLP, final concentration 10^−7 M) were added for 3 minutes. The cells were chilled on ice, and were spun down. The optical densities in the cell-free supernatant was measured in a spectrophotometer. The median inhibitory concentration (IC50) of the compounds was calculated.

T1 sequence (Q16539 whole entry): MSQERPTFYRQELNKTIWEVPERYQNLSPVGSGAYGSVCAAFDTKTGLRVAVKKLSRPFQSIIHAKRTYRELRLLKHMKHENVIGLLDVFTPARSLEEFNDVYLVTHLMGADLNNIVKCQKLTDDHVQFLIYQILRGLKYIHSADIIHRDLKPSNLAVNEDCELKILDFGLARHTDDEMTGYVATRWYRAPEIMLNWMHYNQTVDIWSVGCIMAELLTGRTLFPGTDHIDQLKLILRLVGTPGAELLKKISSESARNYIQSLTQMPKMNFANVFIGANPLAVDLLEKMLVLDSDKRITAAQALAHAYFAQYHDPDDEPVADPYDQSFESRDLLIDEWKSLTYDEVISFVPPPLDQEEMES

IC50 [1] [nM] | IC50 [2] [nM] | IC50 [3] [nM] | IC50 [4] [nM] | SMILES
72 | 93.3 | 17 | 6.3 | Cc1ccccc1Nc1ccc(C(=O)c2sccc2Cl)c(Cl)c1 [Compound 101, 4-(2-tolylamino)-2-chlorophenyl 3-chloro-2-thienyl ketone]
13 | – | 7.1 | 5 | Cc1ccccc1C(=O)c1ccc(Nc2ccccc2N)cc1Cl [Ref. comp., 4-(2-aminophenylamino)-2-chloro-2′-methylbenzophenone, reference compound]
